Results from paper PMC9867442, “Indole Derivatives Bearing Imidazole, Benzothiazole-2-Thione or Benzoxazole-2-Thione Moieties—Synthesis, Structure and Evaluation of Their Cytoprotective, Antioxidant, Antibacterial and Fungicidal Activities” (Molecules, 2023).

Legend:
[1] = system: human red blood cells (RBC); assay: Hemolysis assay under the compounds tested; type: cell-based; settings: 0.1 mg/mL, 60 min, 37 °C, PBS pH 7.4
Method: The erythrocytes were washed three times (3000 rpm, 10 min, +4 °C) in 7.4 pH phosphate buffered saline (PBS: 137 mM NaCl, 2.7 mM KCl, 10 mM Na2HPO4, 1.76 mM KH2PO4) supplemented with 10 mM glucose. After washing, RBC were suspended in the PBS buffer at 1.65 × 10^9 cells/mL, stored at +4 °C, and used within 5 h.
The cytotoxic activity of the compounds tested was determined by a standard hemolytic assay according to Mrówczyńska and Hägerstrand [57]. Briefly, RBC (1.65 × 10^8 cells/mL, ~1.5% hematocrit) were incubated in PBS buffer (7.4 pH) supplemented with 10 mM glucose and containing compounds tested (0.1 mg/mL) for 60 min at 37 °C in a shaking water bath. Samples with RBC incubated in PBS without compounds tested were taken as the control. Each sample was repeated three times, and the experiments were repeated 3 times with RBC from different donors. After incubation, the RBC suspensions were centrifuged (3000 rpm, 10 min), and the degree of hemolysis was estimated by measuring the absorbance (Ab) of the supernatant at 540 nm. The results were expressed as a percentage (%) of hemolysis which was determined using the following equation:Hemolysis (%) = (sample Ab/positive control Ab) × 100% were positive control is Ab of supernatant of RBC in ice-cold H2O.

[2] = Ferrous ions (Fe2+) chelating activity (ferrozine); settings: 0.1 mg/mL, 10 min, room temperature
Method: Ferrous ions (Fe^2+) chelating activity was evaluated by inhibition of the formation of Fe^2+-ferrozine complex after incubation of the compounds tested with Fe^2+. The Fe^2+-chelating ability of compounds tested was determined by the absorbance of the ferrous ion-ferrozine complex at 562 nm. In brief, 0.1 mg/mL concentration of the compounds tested in 0.2 mL ethyl alcohol were added to a solution of 0.6 mM FeCl2 (0.05 mL). EDTA (ethylenediaminetetraacetic acid) was used as the standard EDTA chelating agent. The reaction was started by the addition of 5 mM ferrozine (0.05 mL) in ethyl alcohol and shaken vigorously immediately. The samples were stored for 10 min at room temperature (~22 °C). Following incubation, the absorbance (Abs) of the solutions was measured at 562 nm in a spectrophotometer. The percentage of inhibition of ferrozine—Fe^2+ complex formation was calculated using the equation: Fe^2+ chelating effect (%) = [1 − (Abs1/Abs0)] × 100% where Abs0 is the absorbance of the sample without the tested compound and Abs1 is the absorbance in the presence of the compound tested. Each sample was made in triplicate, and three independent experiments were performed.

Bacillus subtilis = assay: Antibacterial well-diffusion method; type: cell-based; settings: 0.1 mL of compound in DMSO, 48 h, 27 °C
Method: (§1) The antimicrobial properties of compounds were determined against selected bacteria: Micrococcus luteus, Bacillus subtilis, Escherichia coli and Pseudomonas fluorescens which came from the collection of Pure Cultures of the Facility of Microbiology of the Department of Soil Science and Microbiology of the Poznan University of Life Sciences. The well-diffusion method was used to evaluate the antimicrobial properties of compounds. 6 mL each of liquidized broth medium was poured into sterile Petri dishes and allowed to solidify. After which, two sterile glass rings with a diameter of 0.5 cm were placed on the surface of each plate. Then 20 mL each of liquid broth medium containing suspensions of the tested bacterial strains at a density of 10^7 cells/cm3, obtained from 48-h cultures on broth […], was introduced. After the medium solidified, the glass rings were removed with a pencil, obtaining two wells on each plate. 0.1 mL of compound dissolved in pure dimethyl sulphoxide was introduced into one well, and 0.1 mL of pure dimethyl sulphoxide was introduced into the other well, which was as a control. Each compound was tested in four replicates. The plates were incubated for 48 h in a thermostat at 27 °C for M. luteus, B. subtilis and P. fluorescens cultures, and the E. coli culture at 37 °C. At the end of the incubation, the diameters of growth inhibition of the tested strains were measured using calipers.

Escherichia coli = assay: Antibacterial well-diffusion method; type: cell-based; settings: 0.1 mL of compound in DMSO, 48 h, 37 °C
Method: as §1

Micrococcus luteus = assay: Antibacterial well-diffusion method; type: cell-based; settings: Micrococus luteus, 0.1 mL of compound in DMSO, 48 h, 27 °C
Method: as §1

Pseudomonas fluorescens = assay: Antibacterial well-diffusion method; type: cell-based; settings: 0.1 mL of compound in DMSO, 48 h, 27 °C
Method: as §1

Coniophora puteana (Cp) = assay: Antifungal agar-plate method; type: cell-based; settings: Coniophora puteana, read-out: Antifungal activity (inhibition of mycelial growth); for inhibition of growth at 0.0001 %: concentration 0.0001%; for inhibition of growth at 0.001 %: concentration 0.001%; for inhibition of growth at 0.01 %: concentration 0.01%; for inhibition of growth at 0.1 %: concentration 0.1%
Method: (§2) Fungal strains: Coriolus versicolor (Cv), Poria placenta (Pp), Coniophora puteana (Cp) and Gloeophyllum trabeum (Gt) were used as a test organism for the experimental determination of the antifungal activity of 1–11. The fungus were obtained from the collection of the Department of Wood Chemical Technology, Faculty of Forestry and Wood Technology, Poznań, University of Life Sciences, Poland. The fungal growth rates were measured in 90 mm-diameter plastic dishes using the agar-plate method, described by Ważny and Thorton. Five concentrations of gramine and its derivatives in the range of 0.1% to 0.00001% were studied. The compound was applied on the agar (2% agar and 5% malt-extract) prepared on the Petri dish and previously autoclaved. The combination of the compound and fungus was repeated three times. Given sample was centrally inoculated with a 5 mm diameter disc taken from the submargin of 5-day-old malt agar plates. The plates were incubated in darkness at 21 ± 2 °C and 70 ± 5% relative air humidity. The growth duration was determined by the total coverage of the reference plate. The radius of the area covered by the fungus compared with the reference agar plate was employed to calculate the effective doses, ED50, of preservative concentrations retarding the fungal growth rate by 50%.

Coriolus versicolor (Cv) = assay: Antifungal agar-plate method; type: cell-based; settings: Trametes versicolor, read-out: Antifungal activity (inhibition of mycelial growth); for inhibition of growth at 0.0001 %: concentration 0.0001%; for inhibition of growth at 0.001 %: concentration 0.001%; for inhibition of growth at 0.01 %: concentration 0.01%; for inhibition of growth at 0.1 %: concentration 0.1%
Method: as §2

[3] = system: Gloeophyllum trabeum (Gt); assay: Antifungal agar-plate method; type: cell-based; settings: Gloeophyllum trabeum, read-out: Antifungal activity (inhibition of mycelial growth); for inhibition of growth at 0.0001 %: concentration 0.0001%; for inhibition of growth at 0.001 %: concentration 0.001%; for inhibition of growth at 0.01 %: concentration 0.01%; for inhibition of growth at 0.1 %: concentration 0.1%
Method: as §2

Poria placenta (Pp) = assay: Antifungal agar-plate method; type: cell-based; settings: read-out: Antifungal activity (inhibition of mycelial growth); for inhibition of growth at 0.0001 %: concentration 0.0001%; for inhibition of growth at 0.001 %: concentration 0.001%; for inhibition of growth at 0.01 %: concentration 0.01%; for inhibition of growth at 0.1 %: concentration 0.1%
Method: as §2

SMILES | Zone of Growth Inhibition (Bacillus subtilis) [mm] | Zone of Growth Inhibition (Escherichia coli) [mm] | Zone of Growth Inhibition (Micrococcus luteus) [mm] | Zone of Growth Inhibition (Pseudomonas fluorescens) [mm] | inhibition of growth at 0.0001 % (Coniophora puteana (Cp)) [%] | inhibition of growth at 0.001 % (Coniophora puteana (Cp)) [%] | inhibition of growth at 0.01 % (Coniophora puteana (Cp)) [%] | inhibition of growth at 0.1 % (Coniophora puteana (Cp)) [%] | inhibition of growth at 0.0001 % (Coriolus versicolor (Cv)) [%] | inhibition of growth at 0.001 % (Coriolus versicolor (Cv)) [%] | inhibition of growth at 0.01 % (Coriolus versicolor (Cv)) [%] | inhibition of growth at 0.1 % (Coriolus versicolor (Cv)) [%] | inhibition of growth at 0.0001 % [3] [%] | inhibition of growth at 0.001 % [3] [%] | inhibition of growth at 0.01 % [3] [%] | inhibition of growth at 0.1 % [3] [%] | inhibition of growth at 0.0001 % (Poria placenta (Pp)) [%] | inhibition of growth at 0.001 % (Poria placenta (Pp)) [%] | inhibition of growth at 0.01 % (Poria placenta (Pp)) [%] | inhibition of growth at 0.1 % (Poria placenta (Pp)) [%] | other results
c1ccc2c(c1)ncn2Cc1c[nH]c2ccccc12 [Compound 9, 1-((1H-indol-3-yl)methyl)-1H-benzo[d]imidazole] | 2.7 | 3 | 4.3 | 0 | 0 | 0 | 40 | 100 | 0 | 6 | 44 | 100 | 17 | 28 | 48 | 100 | 0 | 23 | 37 | 100 | Hemolytic activity [1]: 23%; Chelating activity [2]: 4%; melting point: 214 to 216 °C
S=c1sc2ccccc2n1Cc1c[nH]c2ccccc12 [Compound 10, 3-((1H-indol-3-yl)methyl)benzo[d]thiazole-2(3H)-thione] | 0 | 1 | 2.6 | 0 | 0 | 40 | 57 | 100 | 0 | 20 | 49 | 100 | 0 | 38 | 59 | 100 | 34 | 54 | 71 | 100 | Chelating activity [2]: 12%; melting point: 187 to 190 °C
Cc1nccn1Cc1c[nH]c2ccccc12 [Compound 3, 3-((2-methyl-1H-imidazol-1-yl)methyl)-1H-indole] | 1 | 1 | 3 | 16 | 0 | 0 | 48 | 100 | 0 | 1 | 35 | 100 | 15 | 19 | 44 | 100 | 0 | 0 | 48 | 100 | Hemolytic activity [1]: 3.6%; melting point: 173 to 174 °C
S=c1oc2ccccc2n1Cc1c[nH]c2ccccc12 [Compound 11, 3-((1H-indol-3-yl)methyl)benzo[d]oxazole-2(3H)-thione] | 0 | 2.7 | 4 | 0 | 0 | 43 | 44 | 100 | 0 | 2 | 26 | 100 | 17 | 39 | 47 | 100 | 0 | 56 | 64 | 100 | Chelating activity [2]: 29%; melting point: 157 to 159 °C
